This is an account of results in patent US9938322B2, “β-hairpin peptidomimetics” (priority 2013, dated 2018).

*1 amine or outer side, *2 acyl side, *3 side chain or, on linkers, in order; H or OH if unused. Where a SMILES comes first, the peptide text is derived from it. Side-chain parts run from the residue outwards. [ ]: non-standard residue; d: D form. The star is where a group is joined. Phe(4-CF3) = N[C@@H](Cc1ccc(C(F)(F)F)cc1)C(=O)O; X1 = CC(C)NC[C@H](N[*:1])C(=O)[*:2]; Orn(iPr) = CC(C)NCCC[C@H](N)C(=O)O; Cha = N[C@@H](CC1CCCCC1)C(=O)O; Chg = N[C@H](C(=O)O)C1CCCCC1; Tle = CC(C)(C)[C@H](N)C(=O)O; Pip = O=C(O)[C@@H]1CCCCN1; dDab = NCC[C@@H](N)C(=O)O; Orn = NCCC[C@H](N)C(=O)O; Dab = NCC[C@H](N)C(=O)O; Nva = CCC[C@H](N)C(=O)O; Dap = NC[C@H](N)C(=O)O; X4 = CCCCOc1ccc(N*)cc1; CO = O=C([*:1])[*:2]

The data set relates to human red blood cells (hRBC). Kind of data set: Hemolysis of human red blood cells. Type of data set: cell-based. The settings on record: red cells of human, 1 h, 100. A digest of the protocol: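 Washed fresh human erythrocytes (20% v/v, about 0.9×10^9 cells/ml final) incubated with peptide at 100 μg/ml for 1 h at 37° C with shaking. Supernatant OD540 read; hemolysis expressed relative to 2.5% Triton X-100 (100%) and PBS with 0.001% acetic acid (0%).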
Regarding `CC(C)C[C@@H]1NC(=O)[C@@H]2CCCN2C(=O)[C@H]2CCCN2C(=O)[C@H](CO)NC(=O)[C@H](C)NC(=O)[C@H](C(C)(C)C)NC(=O)[C@H](CCN)NC(=O)[C@H](Cc2c[nH]c3ccccc23)NC(=O)[C@H](CN)NC(=O)[C@@H](CCN)NC(=O)[C@H](CCCN)NC(=O)[C@H](CCN)NC(=O)[C@H](Cc2ccc(O)cc2)NC(=O)[C@H](CO)NC1=O` [Ex. 103] (cyclo(LSY[Dab][Orn][dDab][Dap]W[Dab][Tle]AS[dP]P)), the “Hemolysis at 100 μg/ml” value stood at 1%.

Turning to `CC(C)C[C@@H]1NC(=O)[C@@H]2CCCN2C(=O)[C@H]2CCCN2C(=O)[C@H](CO)NC(=O)[C@H](C)NC(=O)[C@H](CC2CCCCC2)NC(=O)[C@H](CCN)NC(=O)[C@H](Cc2c[nH]c3ccccc23)NC(=O)[C@H](CCN)NC(=O)[C@@H](CCN)NC(=O)[C@H](CCCN)NC(=O)[C@H](CCN)NC(=O)[C@H](Cc2ccc(O)cc2)NC(=O)[C@H](C)NC1=O` [compound 127] (cyclo(LAY[Dab][Orn][dDab][Dab]W[Dab][Cha]AS[dP]P)), the “Hemolysis at 100 μg/ml” value worked out at 1%.

Regarding `CC(C)NCCC[C@@H]1NC(=O)[C@H](CCN)NC(=O)[C@H](CC2CCCCC2)NC(=O)[C@H](CNC(C)C)NC(=O)[C@H](Cc2c[nH]c3ccccc23)NC(=O)[C@@H]2CCCN2C(=O)[C@H]2CCCN2C(=O)[C@H](CO)NC(=O)[C@H](CO)NC(=O)[C@H](C(C)(C)C)NC(=O)[C@H](CCN)NC(=O)[C@H](Cc2c[nH]c3ccccc23)NC(=O)[C@H](CCN)NC(=O)[C@@H](CCN)NC1=O` [compound 8] (cyclo(W[X1][Cha][Dab][Orn(iPr)][dDab][Dab]W[Dab][Tle]SS[dP]P)), the “Hemolysis at 100 μg/ml” value was 7%.

On to `CCC[C@@H]1NC(=O)[C@@H]2CCCN2C(=O)[C@H]2CCCN2C(=O)[C@H](CO)NC(=O)[C@H](C)NC(=O)[C@H](C(C)(C)C)NC(=O)[C@H](CCN)NC(=O)[C@H](Cc2c[nH]c3ccccc23)NC(=O)[C@H](CCN)NC(=O)[C@@H](CCN)NC(=O)[C@H](CCCN)NC(=O)[C@H](CCN)NC(=O)[C@H](Cc2ccc(C(F)(F)F)cc2)NC(=O)[C@H](CO)NC1=O` [compound 106] (cyclo([Nva]S[Phe(4-CF3)][Dab][Orn][dDab][Dab]W[Dab][Tle]AS[dP]P)), for which the “Hemolysis at 100 μg/ml” value is 2%.

Take `COC[C@@H]1NC(=O)[C@H](C(C)(C)C)NC(=O)[C@H](CCN)NC(=O)[C@H](Cc2c[nH]c3ccccc23)NC(=O)[C@H](CCN)NC(=O)[C@H](CCN)NC(=O)[C@H](CCCN)NC(=O)[C@H](CCN)NC(=O)[C@H](CC2CCCCC2)NC(=O)[C@H](C)NC(=O)[C@H](Cc2c[nH]c3ccccc23)NC(=O)[C@@H]2CCCN2C(=O)[C@H]2CCCN2C(=O)[C@H](CO)NC1=O` [Ex. 5] (cyclo(WA[Cha][Dab][Orn][Dab][Dab]W[Dab][Tle]S(Me)S[dP]P)): the “Hemolysis at 100 μg/ml” value was 0.5%.

For the compound `CC(C)C[C@@H]1NC(=O)[C@@H]2CCCN2C(=O)[C@H]2CCCN2C(=O)[C@H](CO)NC(=O)[C@H](CC(N)=O)NC(=O)[C@H](C(C)(C)C)NC(=O)[C@H](CCN)NC(=O)[C@H](Cc2c[nH]c3ccccc23)NC(=O)[C@H](CCN)NC(=O)[C@@H](CCN)NC(=O)[C@H](CCCN)NC(=O)[C@H](CCN)NC(=O)[C@H](Cc2ccc(O)cc2)NC(=O)[C@H](CC(=O)O)NC1=O` [compound 123] (cyclo(LDY[Dab][Orn][dDab][Dab]W[Dab][Tle]NS[dP]P)), the “Hemolysis at 100 μg/ml” value is 0%.

For `CCC[C@@H]1NC(=O)[C@@H]2CCCN2C(=O)[C@H]2CCCN2C(=O)[C@H](CO)NC(=O)[C@H](C)NC(=O)[C@H](C(C)(C)C)NC(=O)[C@H](CCN)NC(=O)[C@H](Cc2c[nH]c3ccccc23)NC(=O)[C@H](CCN)NC(=O)[C@@H](CCN)NC(=O)[C@H](CCCN)NC(=O)[C@H](CCN)NC(=O)[C@H](Cc2ccc(O)cc2)NC(=O)[C@H](C)NC1=O` [compound 48] (cyclo([Nva]AY[Dab][Orn][dDab][Dab]W[Dab][Tle]AS[dP]P)), the “Hemolysis at 100 μg/ml” value is 1%.

Regarding `CC(C)C[C@@H]1NC(=O)[C@@H]2CCCN2C(=O)[C@H]2CCCN2C(=O)[C@H]([C@@H](C)O)NC(=O)[C@H](C)NC(=O)[C@H](C(C)(C)C)NC(=O)[C@H](CCN)NC(=O)[C@H](Cc2c[nH]c3ccccc23)NC(=O)[C@H](CCN)NC(=O)[C@@H](CCN)NC(=O)[C@H](CCCN)NC(=O)[C@H](CCN)NC(=O)[C@H](Cc2ccc(O)cc2)NC(=O)[C@H](CO)NC1=O` [compound 88] (cyclo(LSY[Dab][Orn][dDab][Dab]W[Dab][Tle]AT[dP]P)), the “Hemolysis at 100 μg/ml” value is reported as 1%.

For `C[C@@H]1NC(=O)[C@H](C(C)(C)C)NC(=O)[C@H](CCN)NC(=O)[C@H](Cc2c[nH]c3ccccc23)NC(=O)[C@H](CCN)NC(=O)[C@H](CCN)NC(=O)[C@H](CCCN)NC(=O)[C@H](CCN)NC(=O)[C@H](Cc2ccc(O)cc2)NC(=O)[C@H](CO)NC(=O)[C@H](Cc2c[nH]c3ccccc23)NC(=O)[C@@H]2CCCN2C(=O)[C@H]2CCCN2C(=O)[C@H](CO)NC1=O` [compound 74] (cyclo(WSY[Dab][Orn][Dab][Dab]W[Dab][Tle]AS[dP]P)), the “Hemolysis at 100 μg/ml” value was found to be 0%.

In the case of `C[C@@H]1NC(=O)[C@H](C(C)(C)C)NC(=O)[C@H](CCN)NC(=O)[C@H](Cc2c[nH]c3ccccc23)NC(=O)[C@H](CCN)NC(=O)[C@@H](CCN)NC(=O)[C@H](CCCN)NC(=O)[C@H](CCN)NC(=O)[C@H](C(C)(C)C)NC(=O)[C@H](CO)NC(=O)[C@H](Cc2c[nH]c3ccccc23)NC(=O)[C@@H]2CCCN2C(=O)[C@H]2CCCN2C(=O)[C@H](CO)NC1=O` [compound 68] (cyclo(WS[Tle][Dab][Orn][dDab][Dab]W[Dab][Tle]AS[dP]P)), the “Hemolysis at 100 μg/ml” value is 0%.

Regarding `CCC[C@@H]1NC(=O)[C@@H]2CCCN2C(=O)[C@H]2CCCN2C(=O)[C@H](CO)NC(=O)[C@H](C)NC(=O)[C@H](C2CCCCC2)NC(=O)[C@H](CCN)NC(=O)[C@H](Cc2c[nH]c3ccccc23)NC(=O)[C@H](CCN)NC(=O)[C@@H](CCN)NC(=O)[C@H](CCCN)NC(=O)[C@H](CCN)NC(=O)[C@H](C(C)(C)C)NC(=O)[C@H](CO)NC1=O` [compound 138] (cyclo([Nva]S[Tle][Dab][Orn][dDab][Dab]W[Dab][Chg]AS[dP]P)), the “Hemolysis at 100 μg/ml” value was found to be 1%.

`CCCCOc1ccc(NC(=O)NC[C@@H]2NC(=O)[C@H](CC(C)C)NC(=O)[C@@H]3CCCN3C(=O)[C@H]3CCCN3C(=O)[C@H](CO)NC(=O)[C@H](C)NC(=O)[C@H](C(C)(C)C)NC(=O)[C@H](CCN)NC(=O)[C@H](Cc3c[nH]c4ccccc34)NC(=O)[C@H](CCN)NC(=O)[C@@H](CCN)NC(=O)[C@H](CCCN)NC(=O)[C@H](CCN)NC(=O)[C@H](CC3CCCCC3)NC2=O)cc1` [compound 41] (cyclo(L[Dap]([CO-X4])[Cha][Dab][Orn][dDab][Dab]W[Dab][Tle]AS[dP]P)): the “Hemolysis at 100 μg/ml” value came to 7%.

For `CC(C)C[C@@H]1NC(=O)[C@@H]2CCCN2C(=O)[C@H]2CCCN2C(=O)[C@H](CO)NC(=O)[C@H](C)NC(=O)[C@H](C(C)(C)C)NC(=O)[C@H](CCCNC(=N)N)NC(=O)[C@H](Cc2c[nH]c3ccccc23)NC(=O)[C@H](CCN)NC(=O)[C@@H](CCN)NC(=O)[C@H](CCCN)NC(=O)[C@H](CCN)NC(=O)[C@H](Cc2ccc(O)cc2)NC(=O)[C@H](CO)NC1=O` [compound 97] (cyclo(LSY[Dab][Orn][dDab][Dab]WR[Tle]AS[dP]P)), the “Hemolysis at 100 μg/ml” value was determined as 1%.

Regarding `C[C@@H]1NC(=O)[C@H](Cc2c[nH]c3ccccc23)NC(=O)[C@@H]2CCCN2C(=O)[C@H]2CCCN2C(=O)[C@H](CO)NC(=O)[C@H](C)NC(=O)[C@H](C(C)(C)C)NC(=O)[C@H](CCN)NC(=O)[C@H](Cc2c[nH]c3ccccc23)NC(=O)[C@H](CCN)NC(=O)[C@@H](CCN)NC(=O)[C@H](CCCN)NC(=O)[C@H](CCN)NC(=O)[C@H](Cc2c[nH]c3ccccc23)NC1=O` [compound 75] (cyclo(WAW[Dab][Orn][dDab][Dab]W[Dab][Tle]AS[dP]P)), the “Hemolysis at 100 μg/ml” value came out at 1%.

For `C[C@@H]1NC(=O)[C@H](C(C)(C)C)NC(=O)[C@H](CCN)NC(=O)[C@H](Cc2c[nH]c3ccccc23)NC(=O)[C@H](CCN)NC(=O)[C@@H](CCN)NC(=O)[C@H](CCCN)NC(=O)[C@H](CCN)NC(=O)[C@H](CC2CCCCC2)NC(=O)[C@H](CN)NC(=O)[C@H](Cc2c[nH]c3ccccc23)NC(=O)[C@@H]2CCCCN2C(=O)[C@H]2CCCN2C(=O)[C@H](CO)NC1=O` [compound 63] (cyclo(AS[dP][Pip]W[Dap][Cha][Dab][Orn][dDab][Dab]W[Dab][Tle])), the “Hemolysis at 100 μg/ml” value was 3%.

As to `CC[C@H](C)[C@@H]1NC(=O)[C@@H]2CCCN2C(=O)[C@H]2CCCN2C(=O)[C@H](CO)NC(=O)[C@H](C)NC(=O)[C@H](C(C)(C)C)NC(=O)[C@H](CCN)NC(=O)[C@H](Cc2c[nH]c3ccccc23)NC(=O)[C@H](CCN)NC(=O)[C@@H](CCN)NC(=O)[C@H](CCCCN)NC(=O)[C@H](CCN)NC(=O)[C@H](Cc2ccc(O)cc2)NC(=O)[C@H](CO)NC1=O` [compound 82] (cyclo(ISY[Dab]K[dDab][Dab]W[Dab][Tle]AS[dP]P)), the “Hemolysis at 100 μg/ml” value was 1%.

With `CC(C)C[C@@H]1NC(=O)[C@@H]2CCCN2C(=O)[C@H]2CCCN2C(=O)[C@H](CO)NC(=O)[C@H](Cc2ccc(O)cc2)NC(=O)[C@H](C(C)(C)C)NC(=O)[C@H](CCN)NC(=O)[C@H](Cc2c[nH]c3ccccc23)NC(=O)[C@H](CCN)NC(=O)[C@@H](CCN)NC(=O)[C@H](CCCN)NC(=O)[C@H](CCN)NC(=O)[C@H](Cc2ccc(O)cc2)NC(=O)[C@H]([C@@H](C)O)NC1=O` [compound 113] (cyclo(LTY[Dab][Orn][dDab][Dab]W[Dab][Tle]YS[dP]P)), the “Hemolysis at 100 μg/ml” value is reported as 0%.

Regarding `CC[C@H](C)[C@@H]1NC(=O)[C@@H]2CCCN2C(=O)[C@H]2CCCN2C(=O)[C@H](CO)NC(=O)[C@H](C)NC(=O)[C@H](C(C)(C)C)NC(=O)[C@H](CCN)NC(=O)[C@H](Cc2c[nH]c3ccccc23)NC(=O)[C@H](CCN)NC(=O)[C@@H](CCN)NC(=O)[C@H](CCCN)NC(=O)[C@H](CCN)NC(=O)[C@H](Cc2ccc(O)cc2)NC(=O)[C@H]([C@@H](C)O)NC1=O` [compound 84] (cyclo(ITY[Dab][Orn][dDab][Dab]W[Dab][Tle]AS[dP]P)), the “Hemolysis at 100 μg/ml” value came out at 0%.
